# Test results as given in PMC9538480, “Rutin bioconjugates as potential nutraceutical prodrugs: An in vitro and in ovo toxicological screening” (Frontiers in Pharmacology, 2022).
# Experiments:
# [1] = test system: chorioallantoic membrane; assay: HET-CAM in ovo irritant potential; type: in vivo, Gallus domesticus; settings: 5 min after application
# Method: To perform a toxicological screening and to verify the irritant potential of the RUT-O and RUT-L were used chicken eggs (Gallus domesticus). Specifically, the eggs were prepared as follows: 1) after being washed and disinfected with 70% ethanol (v/v), the eggs were placed in an incubator in a horizontal posture; 2) on the fourth day of incubation, a small hole was made through which a volume of approximately 7–8 ml of albumen was extracted in order to facilitate the detachment of the chorioallantoic membrane from the inner shell of the egg; 3) on the fifth day of incubation, a window was cut in the upper part of the egg to allow the visualization of the blood vessels, which was then covered with adhesive tape and the eggs were placed in the incubator until the day of the beginning of the experiment. Using the Hen’s Egg Test—Chorioallantoic Membrane (HET-CAM) assay, the potential in ovo toxicity of the samples was evaluated. […] [Kis et al., 2022]). […] In order to observe any vascular effects, a stereomicroscope (Discovery 8 Stereomicroscope Zeiss, Göttingen, and Germany) was used, and images were taken with a Zeiss Axio CAM 105 color camera before and 5 min after the application of the samples. The same experimental protocol was applied for the parent compounds—RUT, OA, and LA.
# [2] = test system: H9c2(2-1) cells; type: cell-based, rat; settings: 100 µM, 24 h, Hoechst 33342
# Method: (§1) The potential toxicity of 100 μM RUT, OA, LA, RUT-O, and RUT-L at nuclear level was tested by applying the Hoechst 33342 staining assay protocol according to the manufacturer’s (Thermo Fisher Scientific, Inc., Waltham, MA, United States) recommendations. In brief, H9c2(2-1), HepaRG, and HaCaT cells were seeded in 12-well plates (10^5 cells/1.5 ml/well) and treated with the test compounds for 24 h. After the stimulation period, the media was removed, and the staining solution diluted 1:2000 in PBS was added (500 µl/well). The plates were incubated for 10 min at room temperature, protected from light. Finally, the staining solution was washed with PBS and the pictures were taken using Cytation 1 (BioTek Instruments Inc., Winooski, VT, United States) and analyzed by the means of Gen5™ Microplate Data Collection and Analysis Software (BioTek Instruments Inc., Winooski, VT, United States). Staurosporine (STP) 5 µM was selected as positive control for apoptosis.
# [3] = test system: HepaRG cells; type: cell-based, human; settings: 100 µM, 24 h, Hoechst 33342
# Method: as §1
# [4] = test system: HaCaT cells; type: cell-based, human; settings: 100 µM, 24 h, Hoechst 33342
# Method: as §1
# [5] = in vitro; type: cell-based, human; settings: human
# Method: (§2) To evaluate the in vitro effect of rutin esters (REs) on cells’ viability, the MTT technique was applied following a 24 h treatment of H9c2(2-1), HepaRG, and HaCaT cells with RUT-O and RUT-L (1, 10, 25, 50, and 100 µM). The parent compounds (PCs)—RUT, OA, and LA were also tested. DMSO was used as solvent for all test compounds (RUT, OA, LA, RUT-O, and RUT-L). The impact of DMSO at tested concentrations (1, 10, 25, 50, and 100 µM) was also assessed in vitro. At the end of the treatment, fresh media (100 µl) and the MTT reagent (10 µl) were added in each well, and the plates were incubated for 3 h at 37°C. The final steps were as follows: addition of the solubilization solution (100 µl/well), incubation of the plates at room temperature for 30 min, protected from light, and absorbance measurement at two wavelengths (570 and 630 nm) using Cytation 5 (BioTek Instruments Inc., Winooski, VT, United States). The results were expressed as percentage (%) of viable cells normalized to control cells (unstimulated cells).
# [6] = test system: trophoblast-like Swan71 cells; design: method as in Shrestha et al., 2019; settings: 24 h of treatment, ref Shrestha et al., 2019; cited from earlier work
# [7] = test system: H9c2(2-1), HaCaT, and HepaRG cells; type: cell-based; settings: 100 µM, 24 h
# Method: To verify the impact of PCs (RUT, OA and LA) and REs (RUT-O and RUT-L) on the morphology and confluence of H9c2(2-1), HaCaT, and HepaRG cells, a microscopic examination was performed. The cells were observed under bright field illumination and photographed at the end of the 24 h treatment period using Cytation 1 (BioTek Instruments Inc., Winooski, VT, United States). The photographs were processed using the Gen5™ Microplate Data Collection and Analysis Software (BioTek Instruments Inc., Winooski, VT, United States).
# [8] = test system: HUVEC endothelial cells; settings: ref Lu et al., 2010; cited from earlier work
# [9] = test system: H9c2(2-1) cells; assay: in vitro; type: cell-based, rat; settings: H9c2(2-1), lowest concentrations (1 and 10 µM), 24 h
# Method: as §2
# [10] = in vitro; type: cell-based, rat; settings: rat
# Method: as §2
# [11] = test system: HaCaT; design: method as in Carullo et al., 2019; settings: 1 μM; ref Carullo et al., 2019; cited from earlier work
nuclear morphology changes [2],nuclear morphology changes [3],nuclear morphology changes [4],impact on cells' adherence or confluency ([7]; compared to control cells),SMILES,"vascular irritation signs (hemorrhage, lysis, coagulation) in words [1]","viability at 24 h, 100 µM [5] [%]",decrease in the viability compared to vehicle control [6] [%],round cells floating in the culture medium ([7]; bright field),concentrations suppressing HUVEC endothelial cells growth [8],effect on cell viability [9],"viability at 24 h, 50 µM [10] [%]","viability at 24 h, 100 µM [10] [%]",stimulation of HaCaT wound healing [11]
no significant nuclear alterations,no significant nuclear alterations,no significant nuclear alterations,no negative impact,"CCCCC/C=C\C/C=C\CCCCCCCC(=O)O [LA, linoleic acid]",No signs of vascular irritation,86.9,10,several round cells floating in the culture medium,higher than 300 µM,stimulatory effect,87.2,84.2,–
–,–,–,–,CCCCCCCC/C=C\CCCCCCCC(=O)Oc1c(-c2ccc(O)c(O)c2)oc2cc(O)cc(O)c2c1=O [Quercetin-3-oleate],–,–,–,–,–,–,–,–,up to 51%
